From US11952384B2, “Anti-tumor compound and preparation method and use thereof” (DUALITY BIOLOGICS (SUZHOU) CO., LTD., priority 2020, dated 2024) come the findings set out here.

In one data set the target is T1, BCRP (Homo sapiens, UniProt Q9UNQ0).
T1 sequence (Q9UNQ0 1-655): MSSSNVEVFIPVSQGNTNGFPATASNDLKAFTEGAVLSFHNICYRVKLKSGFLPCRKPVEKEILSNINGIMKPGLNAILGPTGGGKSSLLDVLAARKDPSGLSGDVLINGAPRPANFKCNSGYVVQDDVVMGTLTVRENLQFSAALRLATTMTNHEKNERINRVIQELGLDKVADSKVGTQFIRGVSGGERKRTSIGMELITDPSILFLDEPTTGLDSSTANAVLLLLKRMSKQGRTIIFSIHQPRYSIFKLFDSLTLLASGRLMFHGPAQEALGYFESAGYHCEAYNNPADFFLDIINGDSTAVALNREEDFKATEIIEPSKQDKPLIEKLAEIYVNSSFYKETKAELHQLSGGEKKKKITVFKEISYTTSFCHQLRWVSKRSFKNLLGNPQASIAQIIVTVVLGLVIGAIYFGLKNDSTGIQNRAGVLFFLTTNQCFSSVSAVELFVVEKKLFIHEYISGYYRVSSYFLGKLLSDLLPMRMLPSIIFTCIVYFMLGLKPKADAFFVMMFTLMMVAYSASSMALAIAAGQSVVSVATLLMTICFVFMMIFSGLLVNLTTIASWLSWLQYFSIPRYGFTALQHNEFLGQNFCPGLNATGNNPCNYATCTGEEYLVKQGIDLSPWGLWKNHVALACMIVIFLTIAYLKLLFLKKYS
The experiment in a line: Study on transporter substrates in Caco-2 cell model. Background: Caco-2 monolayers are a common model of the intestinal barrier.

The target of a further data set is T2, P-gp (Homo sapiens, UniProt P08183).
T2 construct: endogenous in cells; host or cells: Caco-2
T2 sequence (P08183 whole entry): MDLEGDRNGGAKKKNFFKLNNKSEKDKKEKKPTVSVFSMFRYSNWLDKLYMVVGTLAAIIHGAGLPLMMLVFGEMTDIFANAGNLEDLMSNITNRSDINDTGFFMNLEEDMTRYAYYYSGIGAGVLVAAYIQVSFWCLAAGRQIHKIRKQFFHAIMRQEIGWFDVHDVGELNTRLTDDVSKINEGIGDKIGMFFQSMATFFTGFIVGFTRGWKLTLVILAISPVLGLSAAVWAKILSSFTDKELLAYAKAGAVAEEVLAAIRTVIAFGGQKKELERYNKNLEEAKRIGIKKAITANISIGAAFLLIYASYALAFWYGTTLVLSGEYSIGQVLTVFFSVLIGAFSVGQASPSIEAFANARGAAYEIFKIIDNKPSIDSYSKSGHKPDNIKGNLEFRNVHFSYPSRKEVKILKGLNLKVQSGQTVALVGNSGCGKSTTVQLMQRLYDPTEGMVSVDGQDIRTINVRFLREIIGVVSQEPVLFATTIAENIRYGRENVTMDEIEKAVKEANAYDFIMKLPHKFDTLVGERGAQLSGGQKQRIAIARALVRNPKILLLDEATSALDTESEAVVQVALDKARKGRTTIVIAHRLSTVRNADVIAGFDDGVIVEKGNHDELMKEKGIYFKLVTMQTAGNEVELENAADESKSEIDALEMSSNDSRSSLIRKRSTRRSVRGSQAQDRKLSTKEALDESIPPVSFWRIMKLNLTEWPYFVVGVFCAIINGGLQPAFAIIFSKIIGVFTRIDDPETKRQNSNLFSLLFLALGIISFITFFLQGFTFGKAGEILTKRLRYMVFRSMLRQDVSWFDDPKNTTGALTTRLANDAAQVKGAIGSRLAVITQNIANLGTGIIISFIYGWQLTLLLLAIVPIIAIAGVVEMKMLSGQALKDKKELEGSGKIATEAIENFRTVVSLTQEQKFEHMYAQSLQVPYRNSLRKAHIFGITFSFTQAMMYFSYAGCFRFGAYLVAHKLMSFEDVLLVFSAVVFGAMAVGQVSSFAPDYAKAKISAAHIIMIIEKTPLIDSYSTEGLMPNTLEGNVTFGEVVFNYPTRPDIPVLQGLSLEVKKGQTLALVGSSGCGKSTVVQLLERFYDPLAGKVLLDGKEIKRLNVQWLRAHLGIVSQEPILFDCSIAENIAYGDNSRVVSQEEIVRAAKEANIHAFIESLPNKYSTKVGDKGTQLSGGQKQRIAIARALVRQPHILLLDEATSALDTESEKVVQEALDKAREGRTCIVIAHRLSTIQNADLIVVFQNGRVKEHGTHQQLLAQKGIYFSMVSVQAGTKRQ
Described as above. Format: in vitro ADME. The settings on record: Caco-2 cell model. As for the experimental part:
The resistance of each well was recorded. […] 2. […] The plate was vortexed for 10 min. The samples were centrifuged. […] HBSS was added to the basolateral compartment. […] 3. Data Analysis
Data were calculated using Microsoft Excel.

Another data set concerns MDA-MB-231 cells. Put plainly: Inhibition of in vitro proliferation of tumor cells by compounds (CTG, 6 days). It counts as cell-based. To be noted: Homo sapiens, MDA-MB-231, 144 h, read-out: MDA-MB-231 IC50 (nM). As for the experimental part:
To test the inhibitory activity of the pharmaceutical compounds on the in vitro proliferation of NCI-N87, JIMT-1 and MBA-MB-231 tumor cells. The cells were treated with compounds at different concentrations in vitro, and after 6 days of culture, the proliferation of cells was detected using CTG (CellTiter-Glo® Luminescent Cell Viability Assay, Promega, Cat. No. G7558) reagents, and the in vitro activity of the compounds was evaluated according to the IC50 value. • 1. Culturing of cells: NCI-N87/JIMT-1/MBA-MB-231 cells were cultured in RPMI-1640 medium containing 10% FBS. • 2. Preparation of cells: NCI-N87/JIMT-1/MBA-MB-231 cells in logarithmic phase were taken, washed with PBS once, and digested with 2-3 mL of trypsin for 2-3 min. After the cells were digested completely, 10-15 mL of cell culture was added to elute the digested cells. The eluate was centrifuged at 1000 rpm for 5 min, and the supernatant was discarded. The resulting cells were resuspended in 10-20 mL of cell culture to obtain a single cell suspension. • 3. Cell plating: the NCI-N87/JIMT-1/MBA-MB-231 single cell suspension was mixed well and adjusted to a viable cell density of 6×10^4 cells/mL with cell culture. The cell suspension with the adjusted density was mixed well and added to a 96-well cell culture plate at 50 μL/well. The culture plate was incubated in an incubator for 18 h (37° C., 5% CO2). • 4. Preparation of compounds: the compounds were dissolved in DMSO to obtain stock solutions at an initial concentration of 10 mM. There were 8 concentrations in total for the small molecule compounds: 300 nM, 100 nM, 30 nM, 10 nM, 3 nM, 1 nM, 0.3 nM, and 0.1 nM. • 5. Sample adding: the prepared samples to be detected at different concentrations were added to the culture plate, and two duplicate wells were set for each sample. The culture plate was incubated in an incubator for 6 days (37° C., 5% CO2). • 6. Color developing: the 96-well cell culture plate was taken out, added with the CTG reagent at 50 μL/well, and incubated at room temperature for 10 min. • 7. Plate reading: the 96-well cell culture plate was taken out, placed in a microplate reader, and measured for the chemiluminescence using the microplate reader. Data analysis: data were processed and analyzed using Microsoft Excel and Graphpad Prism 5.

The test system of another data set is JIMT-1 cells. Described as above. It counts as cell-based. The settings on record: Homo sapiens, JIMT-1, 144 h, read-out: JIMT-1 IC50 (nM). As to the method: (§1) To test the inhibitory activity of the pharmaceutical compounds on the in vitro proliferation of NCI-N87, JIMT-1 and MBA-MB-231 tumor cells. The cells were treated with the compounds at different concentrations in vitro, and after 6 days of culture, the proliferation of cells was detected using the CTG (CellTiter-Glo® Luminescent Cell Viability Assay, Promega, Cat. No. G7558) reagent, and the in vitro activity of the compounds was evaluated according to the IC50 value.
(§2) In the following, the test for the inhibition of the in vitro proliferation of NCI-N87 cells was taken as an example to illustrate the method of the present application for testing the inhibitory activity of the compounds of the present application on the in vitro proliferation of tumor cells. The method was also applicable to, but not limited to, the test for the inhibitory activity on the in vitro proliferation of other tumor cells. • 1. Culturing of cells: NCI-N87 cells were cultured in RPMI-1640 medium containing 10% FBS. • 2. Preparation of cells: NCI-N87 cells in logarithmic phase were taken, washed with PBS once, and digested with 2-3 mL of trypsin for 2-3 min. After the cells were digested completely, 10-15 mL of cell culture was added to elute the digested cells. The eluate was centrifuged at 1000 rpm for 5 min, and the supernatant was discarded. The resulting cells were resuspended in 10-20 mL of cell culture to obtain a single cell suspension. • 3. Cell plating: the NCI-N87 single cell suspension was mixed well and adjusted to a viable cell density of 6×10^4 cells/mL with cell culture. The cell suspension with the adjusted density was mixed well and added to a 96-well cell culture plate at 50 μL/well. The culture plate was incubated in an incubator for 18 h (37° C., 5% CO2). • 4. Preparation of compounds: the compounds were dissolved in DMSO to obtain stock solutions at an initial concentration of 10 mM. There were 8 concentrations in total for the small molecule compounds: 300 nM, 100 nM, 30 nM, 10 nM, 3 nM, 1 nM, 0.3 nM, and 0.1 nM. • 5. Sample adding: the prepared samples to be detected at different concentrations were added to the culture plate, and two duplicate wells were set for each sample. The culture plate was incubated in an incubator for 6 days (37° C., 5% CO2). • 6. Color developing: the 96-well cell culture plate was taken out, added with the CTG reagent at 50 μL/well, and incubated at room temperature for 10 min. • 7. Plate reading: the 96-well cell culture plate was taken out, placed in a microplate reader, and measured for the chemiluminescence using the microplate reader. Data Analysis
(§3) Data were processed and analyzed using Microsoft Excel and Graphpad Prism 5.
(§4) To test the inhibitory activity of the pharmaceutical compounds on the in vitro proliferation of NCI-N87, JIMT-1 and MBA-MB-231 tumor cells. The cells were treated with compounds at different concentrations in vitro, and after 6 days of culture, the proliferation of cells was detected using CTG (CellTiter-Glo® Luminescent Cell Viability Assay, Promega, Cat. No. G7558) reagents, and the in vitro activity of the compounds was evaluated according to the IC50 value. • 1. Culturing of cells: NCI-N87/JIMT-1/MBA-MB-231 cells were cultured in RPMI-1640 medium containing 10% FBS. • 2. Preparation of cells: NCI-N87/JIMT-1/MBA-MB-231 cells in logarithmic phase were taken, washed with PBS once, and digested with 2-3 mL of trypsin for 2-3 min. After the cells were digested completely, 10-15 mL of cell culture was added to elute the digested cells. The eluate was centrifuged at 1000 rpm for 5 min, and the supernatant was discarded. The resulting cells were resuspended in 10-20 mL of cell culture to obtain a single cell suspension. • 3. Cell plating: the NCI-N87/JIMT-1/MBA-MB-231 single cell suspension was mixed well and adjusted to a viable cell density of 6×10^4 cells/mL with cell culture. […]

The subject of the next data set is NCI-N87 cells. Described as above. It counts as cell-based. To be noted: Homo sapiens, NCI-N87, 144 h, read-out: NCI-N87 IC50 (nM). As to the method: as §1, §2, §3, §4

Experimental for BCRP: To investigate whether the compounds of the present invention is a substrate for efflux transporters P-gp and BCRP in a Caco-2 cell model, thereby providing preclinical basis for analyzing the drug-drug interaction in pharmacokinetics.
• 1) Cell culture medium was added to each well of the Transwell. The HTS Transwell plate was incubated under conditions of 37° C. and 5% CO2 for 1 h prior to cell inoculation. • 2) Caco-2 cells were diluted with culture medium and the cell suspension was dispensed into filter wells of the 96-well HTS Transwell plate. […] The cell culture medium was changed periodically. • 3) Monolayer cell resistance was measured using the Millicell Epithelial Volt-Ohm detection system. The resistance of each well was recorded. After all wells were measured, the Transwell plate was put back into the incubator. TEER of each well was calculated according to the formula. The TEER value of each well should be greater than 230 ohm·cm^2. […] Preparation for Transporter Test • 1) The Caco-2 plate was taken out from the incubator. The monolayer cells were washed with pre-heated HBSS twice. The plate was then incubated at 37° C. for 30 min. • 2) Stock solutions of the compounds were prepared in DMSO and diluted with HBSS to obtain working solutions. Digoxin was used as a reference substrate for P-gp and rosuvastatin was used as a reference substrate for BCRP. Propranolol was used as a high permeability marker. • 3) The working solution (without inhibitor) was added to the Transwell insert (apical compartment) to determine the rate of drug transport in the apical to basolateral direction. The transfer buffer was added to the wells in the receiver plate (basolateral compartment). The working solution (without inhibitor) was added to the receiver plate wells (basolateral compartment) to determine the rate of drug transport in the basolateral to apical direction. The Transwell insert (apical compartment) was filled with the transport buffer. PSC833 was added to the apical and basolateral compartments to determine the rate of drug transport in the presence of P-gp inhibitors. • 4) The sample was transferred from the working solution to the quenching solution, and a sample with a time of 0 was prepared. The Transwell plate was incubated under conditions of 37° C. and 5% CO2 for 2 h. • 5) At the end of the transport cycle, the samples were transferred from the apical and basolateral wells into a new 96-well plate. Cold acetonitrile or methanol containing the appropriate internal standard (IS) was added to each well of the plate. The plate was vortexed for 10 min. The samples were centrifuged. The supernatant of an aliquot was mixed with an appropriate amount of ultrapure water (depending on the LC-MS/MS signal response and peak shape) prior to the LC-MS/MS analysis. • 6) The stock solution of lucifer yellow in DMSO was prepared and diluted with HBSS to determine the amount of lucifer yellow leakage after a 2-hour transport period. The lucifer yellow solution was added to the apical compartment. HBSS was added to the basolateral compartment. The plate was incubated at 37° C. for 30 min, and a certain amount of the solution was directly taken from the apical and basolateral wells and transferred to a new 96-well plate. The lucifer yellow fluorescence was measured in a fluorescence plate reader with 485 nm excitation and 530 nm emission (to monitor monolayer integrity).
Data were calculated using Microsoft Excel. The percentage of the compound remaining at each time point was estimated by determining the peak area ratio from the extracted ion chromatogram.
For drug transport analysis in the Caco-2 cell model, the apparent permeability coefficient (Papp) can be calculated according to the following formula, in cm/s:
[formula] • wherein the concentration C is in nM, the volume V is in μL, the time T is in s, and the area S is in cm^2.
The recovery rate is calculated according to the following formula:

As for `CC[C@@]1(O)C(=O)OCc2c1cc1n(c2=O)Cc2c-1nc1cc(F)c(C)c3c1c2[C@@H](NC(=O)CO)CC3` [Dxd, reference compound], on BCRP (Caco-2, KO143 +), the “Recovery rate (%) AP-BL” value is listed as 76.51% and the “Recovery rate (%) BL-AP” value worked out at 74.87%. In addition, on BCRP (Caco-2, KO143 −), the Efflux ratio came to 74.03, the “Recovery rate (%) AP-BL” value came out at 57.76% and the “Recovery rate (%) BL-AP” value is reported as 56.20%. Besides, at BCRP (Caco-2, KO143 −, 2 h), the “Papp (A-B) (10^−6, cm/s)” value is given as 0.07 10^−6, cm/s and the “Papp (B-A) (10^−6, cm/s)” value is reported as 4.82 10^−6, cm/s. In addition, the BCRP substrate result on BCRP (Caco-2 cell model, from rate of change of efflux ratio) was “transporter BCRP substrate and Yes”. The P-gp substrate result on P-gp was “not a transporter P-gp substrate”.
Regarding `CC[C@@]1(O)C(=O)OCc2c1cc1n(c2=O)Cc2c-1nc1cc(F)c(C)c3c1c2[C@@H](NC(=O)c1ccc(O)cc1)CC3` [P-II-23, N-((1S,9S)-9-ethyl-5-fluoro-9-hydroxy-4-methyl-10,13-dioxo-2,3,9,10,13,15-hexahydro-1H,12H-benzo[de]pyrano[3′,4′:6,7]indolizino[1,2-b]quinolin-1-yl)-4-hydroxybenzamide-1-carboxamide], the half-inhibitory concentration (IC50) (commonly the midpoint of a concentration-inhibition curve) in the data set on MDA-MB-231 cells is 7.7 nM.
Consider `CC[C@@]1(O)C(=O)OCc2c1cc1n(c2=O)Cc2c-1nc1cc(F)c(C)c3c1c2[C@@H](NC(=O)c1ccc(O)cn1)CC3` [P-II-24, N-((1S,9S)-9-ethyl-5-fluoro-9-hydroxy-4-methyl-10,13-dioxo-2,3,9,10,13,15-hexahydro-1H,12H-benzo[de]pyrano[3′,4′:6,7]indolizino[1,2-b]quinolin-1-yl)-5-hydroxypicolinamide], for which the IC50 in the data set with MDA-MB-231 cells came to 8.5 nM; in the data set on JIMT-1 cells it was 20.8 nM.
For the molecule `CC[C@@]1(O)C(=O)OCc2c1cc1n(c2=O)Cc2c-1nc1cc(F)c(C)c3c1c2[C@@H](NC(=O)CS)CC3` [P-III-1, N-((1S,9S)-9-ethyl-5-fluoro-9-hydroxy-4-methyl-10,13-dioxo-2,3,9,10,13,15-hexahydro-1H,12H-benzo[de]pyrano[3′,4′:6,7]indolizino[1,2-b]quinolin-1-yl)-2-mercaptoacetamide], the concentration for half-maximal inhibition (IC50) in the data set with MDA-MB-231 cells was 28.9 nM.
On the same count and under the same terms, the same measure for `CC[C@@]1(O)C(=O)OCc2c1cc1n(c2=O)Cc2c-1nc1cc(F)c(C)c3c1c2[C@@H](NC(=O)CCNC)CC3` [P-III-9, N-((1S,9S)-9-ethyl-5-fluoro-9-hydroxy-4-methyl-10,13-dioxo-2,3,9,10,13,15-hexahydro-1H,12H-benzo[de]pyrano[3′,4′:6,7]indolizino[1,2-b]quinolin-1-yl)-3-methylaminopropanamide]: 28.9 nM.
Take `CC[C@@]1(O)C(=O)OCc2c1cc1n(c2=O)Cc2c-1nc1cc(F)c(C)c3c1c2[C@@H](NC(=O)CC(C)(C)O)CC3` [P-III-21, N-((1S,9S)-9-ethyl-5-fluoro-9-hydroxy-4-methyl-10,13-dioxo-2,3,9,10,13,15-hexahydro-1H,12H-benzo[de]pyrano[3′,4′:6,7]indolizino[1,2-b]quinolin-1-yl)-3-hydroxy-3-methylbutanamide]: the IC50 in the data set on MDA-MB-231 cells was found to be 2.88 nM; with NCI-N87 cells, 4.75 nM; in the data set on JIMT-1 cells it was 2.87 nM.
In the case of `CC[C@@]1(O)C(=O)OCc2c1cc1n(c2=O)Cc2c-1nc1cc(F)c(C)c3c1c2[C@@H](NC(=O)C[C@H](C)N)CC3` [P-III-28, (S)-3-amino-N-((1S,9S)-9-ethyl-5-fluoro-9-hydroxy-4-methyl-10,13-dioxo-2,3,9,10,13,15-hexahydro-1H,12H-benzo[de]pyrano[3′,4′:6,7]indolizino[1,2-b]quinolin-1-yl)butanamide], the IC50 in the data set on MDA-MB-231 cells came to 1.2 nM.
As to `CC[C@@]1(O)C(=O)OCc2c1cc1n(c2=O)Cc2c-1nc1cc(F)c(C)c3c1c2[C@@H](NC(=O)C[C@@H](N)CO)CC3` [P-III-29, (R)-3-amino-N-((1S,9S)-9-ethyl-5-fluoro-9-hydroxy-4-methyl-10,13-dioxo-2,3,9,10,13,15-hexahydro-1H,12H-benzo[de]pyrano[3′,4′:6,7]indolizino[1,2-b]quinolin-1-yl)-4-hydroxybutanamide], the IC50 with MDA-MB-231 cells was 8.6 nM; in the data set on JIMT-1 cells, 16.7 nM.
